From US20230172990A1, “EXTRACELLULAR VESICLE COMPOSITIONS AND THE USE THEREOF IN THE TREATMENT OF SKIN CONDITIONS AND IN IMMUNE MODULATION” (priority 2020, published 2023)

How the values were obtained:
[1] = test system: elderly AT-MSCs; test: Intracellular ROS level (H2-DCFDA fluorescence) in AT-MSCs; assay type: cell-based, human; conditions: 20 μM Eda; for ROS levels in elderly AT-MSCs after 24 hours of culture with agent: 1 mM NAC, 2 μM AA
Experimental: The expression of ROS in infant- and elderly-derived ATMSCs was evaluated. The intracellular ROS level was measured using 2′,7′-dichlorodihydrofluorescein diacetate (H2-DCFDA, Invitrogen) according to the manufacturer's instructions. Briefly, after reaching 80% confluence, the ATMSCs were washed with PBS and incubated with PBS containing 10 μM H2-DCFDA at 37° C. for 30 minutes. The fluorescence intensity was analyzed by absorbance at 495 nm and 525 nm wavelengths using a photoemission spectrophotometer (Corona Electric, Japan).
(§1) While not wishing to be bound by theory, the oxidative stress and resulting accumulation of ROS are believed to relate to the impaired function of elderly AT-MSCs. The effects of anti-oxidative agents on elderly AT-MSCs were tested and the expression of ROS in elderly AT-MSCs were measured following culture in the presence of 20 μM Edaravone (Eda), 1 mM N-acetylcysteine (NAC), or 2 μM Ascorbic Acid (AA), respectively. […] The concentration of Eda, NAC and AA was maintained in the culture media throughout the culture period. The effects of anti-oxidative agents on cell senescence were also investigated. Cell senescence was assessed by measuring the activity of senescence associated (SA) β-galactosidase following 6 or 12 passages of culture in the presence of 20 μM Eda, 1 mM NAC, or 2 μM AA. […] In FIGS. 3A, 3B and 3C, *=P<0.05, **=P<0.01, and ns=not significant.

[2] = test system: streptozotocin-induced diabetic mouse punch biopsy model; test: Mouse punch biopsy wound healing model (streptozotocin-induced diabetic mice); assay type: in vivo; conditions: elderly AT-MSCs cultured 24 hours with 20 μM Eda, 1 mM NAC or 2 μM AA
Experimental: The effect of the anti-oxidative agents Eda, NAC and AA on the wound healing ability of elderly AT-MSCs was investigated using the mouse punch biopsy model, as described in Dunn et al., J Vis Exp. (75): 50265, 2013). Briefly, 7-week-old male C57BL/6 mice were anesthetized using avertin and shaved. Two wounds were established using 5 mm biopsy punch in the mice upper dorsal area. MSCs (5×10^5 cells/wound) or EVs (4 μg/wound) were injected at 4 points surrounding the punch area. Each mouse had two punched wounds, (1) PBS and (2) cells or EV-treatment. A splint was stitched to the surrounding wound areas and covered with Tegaderm (3M, USA), and the wound sites were observed every day. The images of the wound areas were captured, and the necrotic areas were analyzed using Image J software (NIH, MD).

[3] = test system: elderly AT-MSCs; test: Cell senescence, senescence associated (SA) β-galactosidase activity; assay type: cell-based, human; conditions: 6 or 12 passages of culture with 20 μM Eda
Experimental: as §1

Structure (SMILES) | ROS levels in elderly AT-MSCs after 24 hours of culture with agent [1] | Wound healing ability of elderly AT-MSCs cultured with the agent [2] | ROS reducing effect in elderly AT-MSCs following 1 cell passage ([1]; 1 cell passage) | (SA) β-galactosidase activity (cell senescence) [3]
O=C1O[C@H]([C@@H](O)CO)C(O)=C1O [AA, Ascorbic Acid] | reduced ROS levels | no effect |  | 
CC(=O)N[C@@H](CS)C(=O)O [NAC, N-acetylcysteine] | reduced ROS levels | no effect |  | 
CC1=NN(c2ccccc2)C(=O)C1 [Eda, Edaravone] | reduced ROS levels | significantly improved wound healing | ROS reducing effects of Eda were evident | reduced (SA) β-galactosidase activity
